Calls of active or inactive are those of the source. No cut-off for these calls is given here.
Key:
Raji [1] = assay: Induction of apoptosis in human Raji cells assessed as effect on cleaved caspase-8 protein expression at 1.25 to 5 uM incubated for 24 hrs by Western blot analysis; type: functional, cell-based; details: dose 1.25-5 µM
Daudi [2] = assay: Induction of apoptosis in human Daudi cells assessed as upregulation of cleaved PARP expression at 0.75 to 3 uM incubated for 24 hrs by Western blot analysis; type: functional, cell-based; details: dose 0.75-3 µM
Raji [3] = assay: Antiproliferative activity against human Raji cells assessed as inhibition of cell growth incubated for 48 hrs by CCK-8 assay; type: functional, cell-based
Raji [4] = assay: Induction of apoptosis in human Raji cells assessed as early apoptotic cells at 5 uM incubated for 24 hrs by Annexin V-FITC/PI staining based flow cytometric analysis (reference value: 0.8%); type: functional
Raji [5] = assay: Induction of apoptosis in human Raji cells assessed as late apoptotic cells at 5 uM incubated for 24 hrs by Annexin V-FITC/PI staining based flow cytometric analysis (reference value: 0.0%); type: functional
[6] = Inhibition of PI3K/AKT/mTOR signalling pathway in human Raji cells assessed as increase in ratio of AKT phosphorylation at […] residue to total AKT protein level at 5 uM incubated for 12 hrs in the presence of YS49 by Western blot analysis; type: cell-based
Daudi [7] = assay: Induction of apoptosis in human Daudi cells assessed as effect on Bax protein expression at 0.75 to 3 uM incubated for 24 hrs by Western blot analysis; type: functional, cell-based; details: dose 0.75-3 µM
Daudi [8] = assay: Induction of cell cycle arrest at G0/G1 phase in human Daudi cells assessed as upregulation of gamma-H2AX protein expression at 0.75 to 3 uM incubated for 24 to 48 hrs by Western blot analysis; type: functional, cell-based; details: dose 0.75-3 µM, time 24-48 hrs
Raji [9] = assay: Induction of apoptosis in human Raji cells assessed as necrotic cells at 5 uM incubated for 24 hrs by Annexin V-FITC/PI staining based flow cytometric analysis (reference value: 1.5%); type: functional
[10] = Inhibition of PI3K/AKT/mTOR signalling pathway in human Daudi cells assessed as inhibition of mTOR phosphorylation incubated for 24 hrs by Western blot analysis; type: cell-based; details: dose 0.75-3 µM
Daudi [11] = assay: Induction of apoptosis in human Daudi cells assessed as nuclear condensation incubated for 24 hrs by Hoechst 33258/PI staining based fluorescence microscopic analysis; type: functional, cell-based; details: dose 0.75-3 µM
Daudi [12] = assay: Induction of apoptosis in human Daudi cells assessed as downregulation of Mcl-1 expression at 0.75 to 3 uM incubated for 24 hrs by Western blot analysis; type: functional, cell-based; details: dose 0.75-3 µM
Raji [13] = assay: Induction of apoptosis in human Raji cells assessed as effect on Bax protein expression at 1.25 to 5 uM incubated for 24 hrs by Western blot analysis; type: functional, cell-based; details: dose 1.25-5 µM
Raji [14] = assay: Induction of mitochondrial dysfunction in human Raji cells assessed as decrease in ATP-5H protein expression at 2.5 to 5 uM incubated for 48 hrs by Western blot analysis; type: functional, cell-based; details: dose 2.5-5 µM
Daudi [15] = assay: Induction of mitochondrial dysfunction in human Daudi cells assessed as decrease in ATP-5J protein expression at 1.5 to 3 uM incubated for 48 hrs by Western blot analysis; type: functional, cell-based; details: dose 1.5-3 µM
[16] = Inhibition of PI3K/AKT/mTOR signalling pathway in human Daudi cells assessed as increase in ratio of AKT phosphorylation at […] residue to total AKT protein level at 3 uM incubated for 12 hrs in the presence of YS49 by Western blot analysis; type: cell-based
Raji [17] = assay: Induction of apoptosis in human Raji cells assessed as effect on caspase-8 protein expression at 1.25 to 5 uM incubated for 24 hrs by Western blot analysis; type: functional, cell-based; details: dose 1.25-5 µM
[18] = Inhibition of PI3K/AKT/mTOR signalling pathway in human Daudi cells assessed as inhibition of PI3K phosphorylation incubated for 24 hrs by Western blot analysis; type: cell-based; details: dose 0.75-3 µM
Raji [19] = assay: Induction of apoptosis in human Raji cells assessed as upregulation of cleaved PARP expression at 1.25 to 5 uM incubated for 24 hrs by Western blot analysis; type: functional, cell-based; details: dose 1.25-5 µM
Raji [20] = assay: Induction of cell cycle arrest in human Raji cells assessed as S phase cells at 5 uM incubated for 48 hrs by PI staining based flow cytometry analysis (reference value: 69.78%); type: functional
[21] = Inhibition of PI3K/AKT/mTOR signalling pathway in human Raji cells assessed as inhibition of AKT phosphorylation at […] residue incubated for 24 hrs by Western blot analysis; type: cell-based; details: dose 1.25-5 µM
Daudi [22] = assay: Effect on total PI3K protein level in human Daudi cells at 0.75 to 3 uM incubated for 24 hrs by Western blot analysis; type: functional, cell-based; details: dose 0.75-3 µM
Daudi [23] = assay: Induction of mitochondrial respiratory chain damage in human Daudi cells assessed as decrease in SDHA protein expression at 1.5 to 3 uM incubated for 48 hrs by Western blot analysis; type: functional, cell-based; details: dose 1.5-3 µM
Raji [24] = assay: Effect on total mTOR protein level in human Raji cells at 1.25 to 5 uM incubated for 24 hrs by Western blot analysis; type: functional, cell-based; details: dose 1.25-5 µM
Raji [25] = assay: Induction of apoptosis in human Raji cells assessed as upregulation of cytochrome C expression at 1.25 to 5 uM incubated for 24 hrs by Western blot analysis; type: functional, cell-based; details: dose 1.25-5 µM
Daudi [26] = assay: Induction of apoptosis in human Daudi cells assessed as upregulation of cleaved caspase-3 expression at 0.75 to 3 uM incubated for 24 hrs by Western blot analysis; type: functional, cell-based; details: dose 0.75-3 µM
Daudi [27] = assay: Induction of apoptosis in human Daudi cells assessed as upregulation of cytochrome C expression at 0.75 to 3 uM incubated for 24 hrs by Western blot analysis; type: functional, cell-based; details: dose 0.75-3 µM
[28] = Inhibition of PI3K/AKT/mTOR signalling pathway in human Raji cells assessed as inhibition of PI3K phosphorylation incubated for 24 hrs by Western blot analysis; type: cell-based; details: dose 1.25-5 µM
Raji [29] = assay: Induction of apoptosis in human Raji cells assessed as total apoptotic cells at 5 uM incubated for 48 hrs by Annexin-V/PI staining based flow cytometric analysis relative to control; type: functional
Raji [30] = assay: Induction of cell cycle arrest at G0/G1 phase in human Raji cells assessed as upregulation of gamma-H2AX protein expression at 1.25 to 5 uM incubated for 24 to 48 hrs by Western blot analysis; type: functional, cell-based; details: dose 1.25-5 µM, time 24-48 hrs
[31] = Inhibition of PI3K/AKT/mTOR signalling pathway in human Raji cells assessed as inhibition of mTOR phosphorylation incubated for 24 hrs by Western blot analysis; type: cell-based; details: dose 1.25-5 µM
Raji [32] = assay: Induction of apoptosis in human Raji cells assessed as late apoptotic cells at 5 uM incubated for 24 hrs in the presence of YS49 by Annexin V-FITC/PI staining based flow cytometric analysis (reference value: 0.0%); type: functional
Raji [33] = assay: Effect on total AKT protein level in human Raji cells at 1.25 to 5 uM incubated for 24 hrs by Western blot analysis; type: functional, cell-based; details: dose 1.25-5 µM
Daudi [34] = assay: Downregulation of c-Myc expression level in human Daudi cells incubated for 24 hrs by Western blot analysis; type: functional, cell-based; details: dose 0.75-3 µM
Raji [35] = assay: Induction of cell cycle arrest at G0/G1 phase in human Raji cells assessed as downregulation of CDK4 protein expression at 1.25 to 5 uM incubated for 24 to 48 hrs by Western blot analysis; type: functional, cell-based; details: dose 1.25-5 µM, time 24-48 hrs
Raji [36] = assay: Induction of apoptosis in human Raji cells assessed as nuclear fragmentation incubated for 48 hrs by Hoechst 33258/PI staining based fluorescence microscopic analysis; type: functional, cell-based; details: dose 1.25-5 µM

## COc1c(OC)c2c3c(nccc3c1-c1cc(C)cc(C)c1)C(c1cc(C)cc(C)c1)=CN2
Raji [1]
  Activity: inactive
Daudi [2]
  Activity: Active
Raji [3]
  IC50: 2.07 µM
Raji [4]
  Activity: 21.7%
Raji [5]
  Activity: 4.2%
[6]
  inhibition: inactive
Daudi [7]
  Activity: inactive
Daudi [8]
  Activity: Active
Raji [9]
  Activity: 17%
[10]
  inhibition: Dose-Dependent Effect
Daudi [11]
  Activity: Dose-Dependent Effect
Daudi [12]
  Activity: Active
Raji [13]
  Activity: inactive
Raji [14]
  Activity: Active
Daudi [15]
  Activity: Active
[16]
  inhibition: inactive
Raji [17]
  Activity: inactive
[18]
  inhibition: Dose-Dependent Effect
Raji [19]
  Activity: Active
Raji [20]
  Activity: 49.74%
[21]
  inhibition: Dose-Dependent Effect
Daudi [22]
  Activity: inactive
Daudi [23]
  Activity: Active
Raji [24]
  Activity: inactive
Raji [25]
  Activity: Active
Daudi [26]
  Activity: Active
Daudi [27]
  Activity: Active
[28]
  inhibition: Dose-Dependent Effect
Raji [29]
  Activity: 25.8%
Raji [30]
  Activity: Active
[31]
  inhibition: Dose-Dependent Effect
Raji [32]
  Activity: 0.9%
Raji [33]
  Activity: inactive
Daudi [34]
  Activity: Dose-Dependent Effect
Raji [35]
  Activity: Active
Raji [36]
  Activity: Dose-Dependent Effect

From ChEMBL document CHEMBL5226361, “Marine Sponge-Derived Alkaloid Induces Mitochondrial Dysfunction and Inhibits the PI3K/AKT/mTOR Signaling Pathway against Burkitt's Lymphoma” (J Nat Prod, 2023)
